# Results from ChEMBL document CHEMBL1201862, “PubChem BioAssay data set” (2004).
#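 Each compound was tested at five concentrations against cells in 96-well plates for 48 hours. The concentration for 50% growth inhibition is given as GI50.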 Calls of active or inactive are those of the source. No stated cut-off is given here; in the data, active = GI50 up to about 1.1 µM and inactive = higher.
# Columns and labels:
# Experiment in all cases: DTP human tumour cell line panel, 48 h
# [1] = system: EKVX
# [2] = system: 786-0
# [3] = system: SN12C
# [4] = system: HCT-15
# [5] = system: M19-MEL
# [6] = system: TK-10
# [7] = system: RXF 393
# [8] = system: RPMI-8226
# [9] = system: OVCAR-5
# [10] = system: DLD-1
# [11] = system: SK-MEL-5
# [12] = system: NCI-H226
# [13] = system: DMS-114
# [14] = system: SF-539
# [15] = system: HCT-116
# [16] = system: HCC 2998
SMILES,GI50 [1],GI50 [2],GI50 [3],GI50 [4],GI50 [5],GI50 [6],GI50 [7],GI50 [8],GI50 [9],GI50 [10],GI50 [11],GI50 [12],GI50 [13],GI50 [14],GI50 [15],GI50 [16]
O=C(O/N=C1/CCC/C1=C\c1ccccc1)c1ccc(Cl)c(Cl)c1,> 100 µM (inactive),> 100 µM (inactive),> 100 µM (inactive),> 100 µM,> 100 µM (inactive),> 100 µM (inactive),> 100 µM (inactive),> 100 µM (inactive),> 100 µM (inactive),> 100 µM (inactive),> 100 µM (inactive),> 100 µM (inactive),> 100 µM (inactive),> 100 µM (inactive),> 100 µM (inactive),> 100 µM (inactive)
O=S(=O)(c1cccc(N=C=S)c1)c1cccc(N=C=S)c1,> 100 µM (inactive),16 µM (inactive),22 µM (inactive),18.3 µM,> 10 µM (inactive),20 µM (inactive),8.11 µM (inactive),28.7 µM (inactive),47 µM (inactive),19.2 µM (inactive),19.7 µM (inactive),,15.5 µM (inactive),> 10 µM (inactive),18.1 µM (inactive),21.8 µM (inactive)
COc1ccc(/C=C/C(=O)c2sc(-n3nc(-c4ccccc4)cc3-c3ccccc3)nc2C)cc1,6.25 µM (inactive),> 10 µM (inactive),75.9 µM (inactive),75.2 µM,> 10 µM (inactive),> 10 µM (inactive),> 10 µM (inactive),39.7 µM (inactive),> 10 µM (inactive),> 10 µM (inactive),52.1 µM (inactive),> 10 µM (inactive),31.3 µM (inactive),> 10 µM (inactive),> 10 µM (inactive),> 10 µM (inactive)
C/C(CCn1[nH]c(=O)ccc1=O)=N\N=C(N)N,> 100 µM (inactive),> 100 µM (inactive),> 100 µM (inactive),> 100 µM,> 100 µM (inactive),> 100 µM (inactive),> 100 µM (inactive),> 100 µM (inactive),> 100 µM (inactive),> 100 µM (inactive),> 100 µM (inactive),> 100 µM (inactive),> 100 µM (inactive),> 100 µM (inactive),> 100 µM (inactive),> 100 µM (inactive)
CN/C=C(/c1ccc(OC)cc1)C(O)c1ccc(OC)c(OC)c1 (stereo not drawn),> 100 µM (inactive),> 100 µM (inactive),> 100 µM (inactive),> 100 µM,> 100 µM (inactive),> 100 µM (inactive),> 100 µM (inactive),> 100 µM (inactive),> 100 µM (inactive),> 100 µM (inactive),> 100 µM (inactive),> 100 µM (inactive),> 100 µM (inactive),> 100 µM (inactive),> 100 µM (inactive),> 100 µM (inactive)
O=C(NCc1cccnc1)C1COc2cc(-c3cc(=O)c4ccccc4o3)ccc2O1 (stereo not drawn),> 81.5 µM (inactive),7.19 µM (inactive),4.34 µM (inactive),77.3 µM,3.93 µM (inactive),> 57.9 µM (inactive),28.7 µM (inactive),> 100 µM (inactive),> 100 µM (inactive),> 100 µM (inactive),26.1 µM (inactive),3.62 µM (inactive),14.1 µM (inactive),3.04 µM (inactive),21.7 µM (inactive),> 100 µM (inactive)
NC1=C(NC(=O)Cc2ccccc2F)C(=O)c2ccccc2C1=O,59.3 µM (inactive),27.1 µM (inactive),90.6 µM (inactive),24.2 µM,4.5 µM (inactive),41.2 µM (inactive),34.4 µM (inactive),> 100 µM (inactive),,16.6 µM (inactive),,> 100 µM (inactive),41.8 µM (inactive),26.9 µM (inactive),44 µM (inactive),> 100 µM (inactive)
NC1=C(C(=O)O)C(=O)C(Nc2c(O)cccc2C(=O)O)=CC1=O,> 100 µM (inactive),> 100 µM (inactive),> 100 µM (inactive),> 100 µM,18.7 µM (inactive),> 100 µM (inactive),31.6 µM (inactive),> 100 µM (inactive),> 100 µM (inactive),31.6 µM (inactive),76 µM (inactive),> 100 µM (inactive),> 100 µM (inactive),> 100 µM (inactive),> 100 µM (inactive),31.6 µM (inactive)
CC1=C(C(=O)Nc2ccccc2C)C(c2ccc(N(C)C)cc2)C(C(=O)Nc2ccccc2C)=C(C)N1,> 100 µM (inactive),72.3 µM (inactive),83.6 µM (inactive),67.9 µM,> 100 µM (inactive),> 100 µM (inactive),35.5 µM (inactive),17.1 µM (inactive),> 100 µM (inactive),45.9 µM (inactive),38.5 µM (inactive),> 100 µM (inactive),48.4 µM (inactive),> 100 µM (inactive),55.3 µM (inactive),34.5 µM (inactive)
COc1ccccc1NC(=O)C1=C(C)NC(C)=C(C(=O)Nc2ccccc2OC)C1c1ccccc1[N+](=O)[O-],64.1 µM (inactive),17.4 µM (inactive),16.6 µM (inactive),14.3 µM,18.5 µM (inactive),22.5 µM (inactive),> 100 µM (inactive),19.1 µM (inactive),41 µM (inactive),16.9 µM (inactive),24.8 µM (inactive),15.2 µM (inactive),15 µM (inactive),19.6 µM (inactive),> 100 µM (inactive),18.7 µM (inactive)
CCOC(=O)C(/N=N\c1ccc(S(N)(=O)=O)cc1)C(C)=O (stereo not drawn),> 100 µM (inactive),> 100 µM (inactive),> 100 µM (inactive),> 100 µM,> 100 µM (inactive),> 100 µM (inactive),> 100 µM (inactive),> 100 µM (inactive),> 100 µM (inactive),> 100 µM (inactive),> 100 µM (inactive),> 100 µM (inactive),> 100 µM (inactive),> 100 µM (inactive),> 100 µM (inactive),99.5 µM (inactive)
COc1cc(C=O)c(-c2c(C=O)ccc3c2OCO3)c(OC)c1OC,> 100 µM (inactive),> 100 µM (inactive),> 100 µM (inactive),80.4 µM,61.4 µM (inactive),> 100 µM (inactive),,56.5 µM (inactive),> 100 µM (inactive),> 100 µM (inactive),> 100 µM (inactive),> 100 µM (inactive),> 100 µM (inactive),> 100 µM (inactive),> 100 µM (inactive),> 100 µM (inactive)
O=S(=O)(SCCCCSS(=O)(=O)c1ccc(Cl)cc1)c1ccc(Cl)cc1,4.67 µM (inactive),9.68 µM (inactive),9.23 µM (inactive),13.4 µM,14.8 µM (inactive),21.3 µM (inactive),16.7 µM (inactive),4.39 µM (inactive),16.7 µM (inactive),13.8 µM (inactive),16.7 µM (inactive),,6.67 µM (inactive),12.4 µM (inactive),11 µM (inactive),18.7 µM (inactive)
